Test results published in PMC11277489, “Novel Piperazine Derivatives of Vindoline as Anticancer Agents” (International Journal of Molecular Sciences, 2024).

Assays:
A498 = experiment: NCI60 one-dose screen (10 μM), Renal Cancer; assay type: cell-based; conditions: Homo sapiens, A498, read-out: Growth percent rate
HS 578T = experiment: NCI60 one-dose screen (10 μM), Breast Cancer; assay type: cell-based; conditions: Homo sapiens, Hs-578T, read-out: Growth percent rate
MOLT-4 = experiment: NCI60 one-dose screen (10 μM), Leukemia; assay type: cell-based, human; conditions: Homo sapiens, MOLT-4, read-out: Growth percent rate
MALME-3M = experiment: NCI60 one-dose screen (10 μM), Melanoma; assay type: cell-based; conditions: Homo sapiens, Malme-3M, read-out: Growth percent rate
HCT-116 = experiment: NCI60 one-dose screen (10 μM), Colon Cancer; assay type: cell-based; conditions: Homo sapiens, HCT-116, read-out: Growth percent rate
IGROV1 = experiment: NCI60 one-dose screen (10 μM), Ovarian Cancer; assay type: cell-based; conditions: Homo sapiens, IGROV-1, read-out: Growth percent rate
OVCAR-8 = experiment: NCI60 one-dose screen (10 μM), Ovarian Cancer; assay type: cell-based; conditions: Homo sapiens, OVCAR-8, read-out: Growth percent rate
COLO 205 = experiment: NCI60 one-dose screen (10 μM), Colon Cancer; assay type: cell-based, human; conditions: Homo sapiens, COLO 205, read-out: Growth percent rate
SF-268 = experiment: NCI60 one-dose screen (10 μM), CNS Cancer; assay type: cell-based; conditions: Homo sapiens, SF-268, read-out: Growth percent rate
SK-MEL-2 = experiment: NCI60 one-dose screen (10 μM), Melanoma; assay type: cell-based; conditions: Homo sapiens, SK-MEL-2, read-out: Growth percent rate
CCRF-CEM = experiment: NCI60 one-dose screen (10 μM), Leukemia; assay type: cell-based; conditions: Homo sapiens, read-out: Growth percent rate
OVCAR-4 = experiment: NCI60 one-dose screen (10 μM), Ovarian Cancer; assay type: cell-based; conditions: Homo sapiens, OVCAR-4, read-out: Growth percent rate
HL-60(TB) = experiment: NCI60 one-dose screen (10 μM), Leukemia; assay type: cell-based; conditions: Homo sapiens, HL-60, read-out: Growth percent rate
SF-295 = experiment: NCI60 one-dose screen (10 μM), CNS Cancer; assay type: cell-based; conditions: Homo sapiens, SF-295, read-out: Growth percent rate
786–0 = experiment: NCI60 one-dose screen (10 μM), Renal Cancer; assay type: cell-based; conditions: Homo sapiens, 786-0, read-out: Growth percent rate
NCI-H23 = experiment: NCI60 one-dose screen (10 μM), Non-small Cell Lung Cancer; assay type: cell-based; conditions: Homo sapiens, NCI-H23, read-out: Growth percent rate
SW-620 = experiment: NCI60 one-dose screen (10 μM), Colon Cancer; assay type: cell-based; conditions: Homo sapiens, SW-620, read-out: Growth percent rate
EKVX = experiment: NCI60 one-dose screen (10 μM), Non-small Cell Lung Cancer; assay type: cell-based; conditions: Homo sapiens, read-out: Growth percent rate
HOP-62 = experiment: as above; assay type: cell-based; conditions: Homo sapiens, HOP-62, read-out: Growth percent rate
UACC-257 = experiment: NCI60 one-dose screen (10 μM), Melanoma; assay type: cell-based; conditions: Homo sapiens, UACC-257, read-out: Growth percent rate
LOX IMVI = experiment: NCI60 one-dose screen (10 μM), Melanoma; assay type: cell-based, human; conditions: Homo sapiens, LOX IMVI, read-out: Growth percent rate
ACHN = experiment: NCI60 one-dose screen (10 μM), Renal Cancer; assay type: cell-based; conditions: Homo sapiens, read-out: Growth percent rate
SK-MEL-28 = experiment: NCI60 one-dose screen (10 μM), Melanoma; assay type: cell-based; conditions: Homo sapiens, SK-MEL-28, read-out: Growth percent rate
U251 = experiment: NCI60 one-dose screen (10 μM), CNS Cancer; assay type: cell-based; conditions: Homo sapiens, U-251, read-out: Growth percent rate
MCF7 = experiment: NCI60 one-dose screen (10 μM), Breast Cancer; assay type: cell-based; conditions: Homo sapiens, MCF7, read-out: Growth percent rate
KM12 = experiment: NCI60 one-dose screen (10 μM), Colon Cancer; assay type: cell-based, human; conditions: Homo sapiens, KM12, read-out: Growth percent rate
CAKI-1 = experiment: NCI60 one-dose screen (10 μM), Renal Cancer; assay type: cell-based; conditions: Homo sapiens, CAKI-1, read-out: Growth percent rate
OVCAR-3 = experiment: NCI60 one-dose screen (10 μM), Ovarian Cancer; assay type: cell-based; conditions: Homo sapiens, OVCAR-3, read-out: Growth percent rate
NCI-H460 = experiment: NCI60 one-dose screen (10 μM), Non-small Cell Lung Cancer; assay type: cell-based; conditions: Homo sapiens, NCI-H460, read-out: Growth percent rate
HCT-15 = experiment: NCI60 one-dose screen (10 μM), Colon Cancer; assay type: cell-based; conditions: Homo sapiens, HCT-15, read-out: Growth percent rate
TK-10 = experiment: NCI60 one-dose screen (10 μM), Renal Cancer; assay type: cell-based; conditions: Homo sapiens, TK-10, read-out: Growth percent rate
NCI-H322M = experiment: NCI60 one-dose screen (10 μM), Non-small Cell Lung Cancer; assay type: cell-based; conditions: Homo sapiens, read-out: Growth percent rate
SF-539 = experiment: NCI60 one-dose screen (10 μM), CNS Cancer; assay type: cell-based, human; conditions: Homo sapiens, SF-539, read-out: Growth percent rate
MDA-MB-435 = experiment: NCI60 one-dose screen (10 μM), Melanoma; assay type: cell-based; conditions: Homo sapiens, MDA-MB-435, read-out: Growth percent rate
SNB-75 = experiment: NCI60 one-dose screen (10 μM), CNS Cancer; assay type: cell-based, human; conditions: Homo sapiens, SNB-75, read-out: Growth percent rate
[1] = tested on: 60 human tumor cell lines (NCI60); experiment: NCI60 one-dose screen (10 μM), whole panel; assay type: cell-based; conditions: Homo sapiens, read-out: Growth percent rate, Mean
RPMI-8226 = experiment: NCI60 one-dose screen (10 μM), Leukemia; assay type: cell-based; conditions: Homo sapiens, RPMI-8226, read-out: Growth percent rate
SN12C = experiment: NCI60 one-dose screen (10 μM), Renal Cancer; assay type: cell-based; conditions: Homo sapiens, read-out: Growth percent rate
K-562 = experiment: NCI60 one-dose screen (10 μM), Leukemia; assay type: cell-based; conditions: Homo sapiens, K562, read-out: Growth percent rate
RXF 393 = experiment: NCI60 one-dose screen (10 μM), Renal Cancer; assay type: cell-based, human; conditions: Homo sapiens, RXF 393, read-out: Growth percent rate
A549/ATCC = experiment: NCI60 one-dose screen (10 μM), Non-small Cell Lung Cancer; assay type: cell-based; conditions: Homo sapiens, A549, read-out: Growth percent rate
NCI-H522 = experiment: as above; assay type: cell-based; conditions: Homo sapiens, NCI-H522, read-out: Growth percent rate

CC[C@]12C=CCN3CC[C@@]4(c5ccc(OC)cc5N(C)[C@H]4[C@@](O)(C(=O)OC)[C@@H]1OC(=O)CCC(=O)N1CCN(C(=O)c4ccco4)CC1)[C@@H]32 [Compound 32]
activity at 10 µM (A498): 117%
activity at 10 µM (HS 578T): 103%
activity at 10 µM (MOLT-4): 85.8%
activity at 10 µM (MALME-3M): 82%
activity at 10 µM (HCT-116): 119%
activity at 10 µM (IGROV1): 126%
activity at 10 µM (OVCAR-8): 100%
activity at 10 µM (COLO 205): 45.8%
activity at 10 µM (SF-268): 92.2%
activity at 10 µM (SK-MEL-2): 96.8%
activity at 10 µM (CCRF-CEM): 86.8%
activity at 10 µM (OVCAR-4): 98.1%
activity at 10 µM (HL-60(TB)): 90.9%
activity at 10 µM (SF-295): 95.2%
activity at 10 µM (786–0): 104%
activity at 10 µM (NCI-H23): 101%
activity at 10 µM (SW-620): 117%
activity at 10 µM (EKVX): 99.4%
activity at 10 µM (HOP-62): 96.2%
activity at 10 µM (UACC-257): 61.7%
activity at 10 µM (LOX IMVI): 97.8%
activity at 10 µM (ACHN): 103%
activity at 10 µM (SK-MEL-28): 67.6%
activity at 10 µM (U251): 97.4%
activity at 10 µM (MCF7): 91.5%
activity at 10 µM (KM12): 100%
activity at 10 µM (CAKI-1): 78.4%
activity at 10 µM (OVCAR-3): 99.8%
activity at 10 µM (NCI-H460): 107%
activity at 10 µM (HCT-15): 100%
activity at 10 µM (TK-10): 103%
activity at 10 µM (NCI-H322M): 114%
activity at 10 µM (SF-539): 98.8%
activity at 10 µM (MDA-MB-435): 98.2%
activity at 10 µM (SNB-75): 109%
activity at 10 µM [1]: 97.2%
activity at 10 µM (RPMI-8226): 99.4%
activity at 10 µM (SN12C): 94.4%
activity at 10 µM (K-562): 102%
activity at 10 µM (RXF 393): 102%
activity at 10 µM (A549/ATCC): 95.2%
activity at 10 µM (NCI-H522): 81.4%
